Active and inactive are the calls of the source. The rule behind the calls is not given here.
Tests used:
Rattus norvegicus [1] = experiment: Anticonvulsant activity in SwissRattus norvegicus albino (rat) assessed as protection against pentamethylene tetrazole-induced seizures at 5 mg/kg, ip administered for 15 min prior to pentamethylene tetrazole induction relative to placebo; assay type: functional
Rattus norvegicus [2] = experiment: Anticonvulsant activity in SwissRattus norvegicus albino (rat) assessed as protection against pentamethylene tetrazole-induced seizures at 10 mg/kg, ip administered for 15 min prior to pentamethylene tetrazole induction relative to placebo; assay type: functional
Rattus norvegicus [3] = experiment: Toxicity in SwissRattus norvegicus albino (rat) up to 10 mg/kg, ip measured for 24 hr; assay type: organism-based, Swiss albino; design: dose 10 mg/kg, route intraperitoneal; conditions: in vivo

Row | Structure (SMILES) | Activity (Rattus norvegicus [1]; Swiss albino) | Activity (Rattus norvegicus [2]; Swiss albino) | Activity (Rattus norvegicus [1]; route intraperitoneal) | Activity (Rattus norvegicus [3]) | Activity (Rattus norvegicus [2]; route intraperitoneal)
1 | CCOC(=O)c1[nH]c(/C=C/c2ccc(N(C)C)cc2)c(C(=O)OCC)c1C | inactive | inactive |  |  | 
2 | CCOC(=O)c1[nH]c(/C=C/c2ccc(Cl)cc2)c(C(=O)OCC)c1C | inactive | inactive |  |  | 
3 | Cc1c(C(=O)NNC(N)=S)[nH]c(/C=C/c2ccc([N+](=O)[O-])cc2)c1C(=O)NNC(N)=S |  |  | 0% | Non-toxic | 0%
4 | O=C1NC(=O)C(c2ccccc2)(c2ccccc2)N1 [PHENYTOIN] |  |  |  | Non-toxic | 98%
5 | COc1ccc(/C=C/c2[nH]c(C(=O)NNC(N)=S)c(C)c2C(=O)NNC(N)=S)cc1 |  |  | 0% | Non-toxic | 0%
6 | CCOC(=O)c1[nH]c(/C=C/c2ccc(OC)cc2)c(C(=O)OCC)c1C | inactive | inactive |  |  | 
7 | Cc1c(C(=O)NNC(N)=S)[nH]c(/C=C/c2ccccc2)c1C(=O)NNC(N)=S |  |  | 33% | Non-toxic | 66%
8 | CCOC(=O)c1[nH]c(/C=C/c2ccc([N+](=O)[O-])cc2)c(C(=O)OCC)c1C | inactive | inactive |  |  | 
9 | Cc1c(C(=O)NNC(N)=S)[nH]c(/C=C/c2ccc(Cl)cc2)c1C(=O)NNC(N)=S |  |  | 19% | Non-toxic | 48%
10 | CCOC(=O)c1[nH]c(/C=C/c2ccccc2)c(C(=O)OCC)c1C | inactive | inactive |  |  | 
11 | CCOC(=O)c1[nH]c(/C=C/c2ccc(O)cc2)c(C(=O)OCC)c1C | inactive | inactive |  |  | 
12 | Cc1c(C(=O)NNC(N)=S)[nH]c(/C=C/c2ccc(O)cc2)c1C(=O)NNC(N)=S |  |  | 0% | Non-toxic | 0%
13 | Cc1c(C(=O)NNC(N)=S)[nH]c(/C=C/c2ccc(N(C)C)cc2)c1C(=O)NNC(N)=S |  |  | 21% | Non-toxic | 46%

From ChEMBL document CHEMBL3045397, “Synthesis and anticonvulsant activity of some new series of pyrrole derivatives” (Med Chem Res, 2012)
